≈ marks a conversion by molar mass, not a printed value. Structures can show the parent of a compound that is named as a salt. Where two headings read alike, the source gives them in different places.
Legend:
Ps. cepacia 23 = experiment: in vitro antibacterial activity, agar plate dilution method (MIC); assay type: cell-based, Pseudomonas cepacia; conditions: Ps. cepacia 23, 10^6 CFU/ml
Outline: (§1)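 Inoculum 10^6 CFU/ml; medium Mueller Hinton agar with graded antibiotic; 37° C./16 h; endpoint MIC (μg/ml).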

Ps. aeruginosa AKR17 = experiment: as above; assay type: cell-based, Pseudomonas aeruginosa; conditions: Pseudomonas aeruginosa, read-out: Minimum Inhibitory Concentration (MIC)
Outline: as §1

Ps. aeruginosa AK 109 = experiment: as above; assay type: cell-based, Pseudomonas aeruginosa; conditions: Pseudomonas aeruginosa, AK109, 16 h, read-out: Minimum Inhibitory Concentration (MIC)
Outline: as §1

Ps. aeruginosa IF03445 = experiment: as above; assay type: cell-based, Pseudomonas aeruginosa; conditions: Pseudomonas aeruginosa, 10^6 CFU/ml
Outline: as §1

A. calcoaceticus No. 4 = experiment: as above; assay type: cell-based, Acinetobacter calcoaceticus; conditions: A. calcoaceticus No. 4, 10^6 CFU/ml
Outline: as §1

E. coli CSH2 (RK1) = experiment: microbe, parasite or virus in culture; assay type: cell-based; conditions: 10^6 CFU/ml
Outline: as §1

E. coli CSH(RE45) = experiment: microbe, parasite or virus in culture; assay type: cell-based; conditions: 10^6 CFU/ml
Outline: as §1

P. vulgaris HX-19 = experiment: in vitro antibacterial activity, agar plate dilution method (MIC); assay type: cell-based; conditions: P. vulgaris HX-19, 10^6 CFU/ml
Outline: as §1

K. pneumoniae PCI-602 = experiment: as above; assay type: cell-based; conditions: K. pneumoniae PCI-602, 10^6 CFU/ml
Outline: as §1

S. aureus 209P NIHJ-JC1 = experiment: as above; assay type: cell-based; conditions: S. aureus 209P NIHJ-JC1, 10^6 CFU/ml, 37° C., 16 hours
Outline: as §1

M. morganii GN5407 = experiment: as above; assay type: cell-based; conditions: *M. morganii GN5407, lactamase-producing strain, 10^6 CFU/ml
Outline: as §1

P. vulgaris No. 33 = experiment: as above; assay type: cell-based; conditions: *P. vulgaris No. 33, lactamase-producing strain, 10^6 CFU/ml
Outline: as §1

E. coli NIHJ JC2 = experiment: as above; assay type: cell-based; conditions: E. coli NIHJ JC2, 10^6 CFU/ml, 37° C., 16 hours
Outline: as §1

S. marcescens No. 16-2 = experiment: as above; assay type: cell-based; conditions: *S. marcescens No. 16-2, lactamase-producing strain, 10^6 CFU/ml
Outline: as §1

E. coli GN5482 = experiment: as above; assay type: cell-based; conditions: *E. coli GN5482, lactamase-producing strain, 10^6 CFU/ml
Outline: as §1

S. marcescens IAM 1184 = experiment: as above; assay type: cell-based; conditions: S. marcescens IAM 1184, 10^6 CFU/ml
Outline: as §1

E. cloacae Nek 39 = experiment: as above; assay type: cell-based; conditions: *E. cloacae Nek 39, lactamase-producing strain, 10^6 CFU/ml
Outline: as §1

K. pneumoniae No. 42 = experiment: as above; assay type: cell-based; conditions: *K. pneumoniae No. 42, lactamase-producing strain, 10^6 CFU/ml
Outline: as §1

K. oxytoca GN10650 = experiment: as above; assay type: cell-based; conditions: *K. oxytoca GN10650, lactamase-producing strain, 10^6 CFU/ml
Outline: as §1

E. cloacae 963 = experiment: as above; assay type: cell-based; conditions: 10^6 CFU/ml
Outline: as §1

`CO/N=C(\C(=O)N[C@@H]1C(=O)N2C(C(=O)O)=C(CSc3nnc(-c4ccccc4)s3)CS[C@H]12)c1csc(N)n1` [compound 5, 7β-[2-(2-aminothiazol-4-yl)-2-methoxyiminoacetamido]-3-(5-phenyl-1,3,4-thiadiazol-2-yl) thiomethyl-3-cephem-4-carboxylic acid trifluoroacetate, reference compound] was tested, and the MIC (Ps. cepacia 23; Burkholderia cepacia, 16 h, read-out: Minimum Inhibitory Concentration (MIC)) was 3.12 µg/mL, the MIC (Ps. aeruginosa AKR17; 16 h, Ps. aeruginosa AKR17, 10^6 CFU/ml) was > 100 µg/mL and the MIC (Ps. aeruginosa AK 109; Ps. aeruginosa AK 109, 10^6 CFU/ml) was 50 µg/mL. The MIC (Ps. aeruginosa IF03445; 16 h, Ps. aeruginosa IF03445, read-out: Minimum Inhibitory Concentration (MIC)) was 50 µg/mL, the MIC (A. calcoaceticus No. 4; Acinetobacter calcoaceticus, NO.4, 16 h, read-out: Minimum Inhibitory Concentration (MIC)) was 3.12 µg/mL and the MIC (E. coli CSH2 (RK1); Escherichia coli, 16 h, read-out: Minimum Inhibitory Concentration (MIC), *E. coli CSH2 (RK1), lactamase-producing strain) was 0.2 µg/mL. The MIC (E. coli CSH(RE45); Escherichia coli, 16 h, read-out: Minimum Inhibitory Concentration (MIC), *E. coli CSH(RE45), lactamase-producing strain) was 0.2 µg/mL, the MIC (P. vulgaris HX-19; Proteus vulgaris, HX19, 16 h, read-out: Minimum Inhibitory Concentration (MIC)) was 0.0125 µg/mL and the MIC (K. pneumoniae PCI-602; Klebsiella pneumoniae, PCI602, 16 h, read-out: Minimum Inhibitory Concentration (MIC)) was 0.0125 µg/mL. For the same compound, the MIC (S. aureus 209P NIHJ-JC1; Staphylococcus aureus, 16 h, read-out: Minimum Inhibitory Concentration (MIC)) was 0.39 µg/mL, the MIC (M. morganii GN5407; Morganella morganii, 16 h, read-out: Minimum Inhibitory Concentration (MIC)) was 0.78 µg/mL and the MIC (P. vulgaris No. 33; Proteus vulgaris, 16 h, read-out: Minimum Inhibitory Concentration (MIC)) was 0.39 µg/mL. It also gave an MIC (E. coli NIHJ JC2; Escherichia coli, NIHJJC2, read-out: Minimum Inhibitory Concentration (MIC)) of 0.39 µg/mL, an MIC (S. marcescens No. 16-2; Serratia marcescens, NO.162, 16 h, read-out: Minimum Inhibitory Concentration (MIC)) of 3.12 µg/mL and an MIC (E. coli GN5482; Escherichia coli, 16 h, read-out: Minimum Inhibitory Concentration (MIC)) of 0.39 µg/mL. The MIC (S. marcescens IAM 1184; Serratia marcescens, IAM1184, 16 h, read-out: Minimum Inhibitory Concentration (MIC)) was 0.78 µg/mL, the MIC (E. cloacae Nek 39; Enterobacter cloacae, NEK39, 16 h, read-out: Minimum Inhibitory Concentration (MIC)) was 3.12 µg/mL and the MIC (K. pneumoniae No. 42; Klebsiella pneumoniae, 16 h, read-out: Minimum Inhibitory Concentration (MIC)) was 0.78 µg/mL. The MIC (K. oxytoca GN10650; Klebsiella oxytoca, 16 h, read-out: Minimum Inhibitory Concentration (MIC)) was 6.25 µg/mL and the MIC (E. cloacae 963; Enterobacter cloacae, 16 h, E. cloacae 963, read-out: Minimum Inhibitory Concentration (MIC)) was 0.78 µg/mL.
`Nc1nc(C(=NOC(C(=O)O)c2ccccc2)C(=O)NC2C(=O)N3C(C(=O)O)=C(CSc4nc(C(=O)O)c(-c5ccc(O)c(O)c5)s4)CSC23)cs1` (single isomer, unassigned) [Example 51 DB] was tested, and the “Minimum Inhibitory Concentration (MIC)” value (Ps. cepacia 23) was < 0.006 µg/mL, the MIC (Ps. aeruginosa AKR17; AKR17, 16 h) was 0.39 µg/mL (≈ 0.497 µM) and the MIC (Ps. aeruginosa AK 109) was 0.39 µg/mL (≈ 0.497 µM). For the same compound, the MIC (Ps. aeruginosa IF03445; IF03445, 16 h, read-out: Minimum Inhibitory Concentration (MIC), Ps. aeruginosa IF03445) was 0.39 µg/mL (≈ 0.497 µM), the “Minimum Inhibitory Concentration (MIC)” value (A. calcoaceticus No. 4) was 0.1 µg/mL and the “Minimum Inhibitory Concentration (MIC)” value (E. coli CSH2 (RK1); *E. coli CSH2 (RK1), lactamase-producing strain) was 0.0125 µg/mL. The “Minimum Inhibitory Concentration (MIC)” value (E. coli CSH(RE45); *E. coli CSH(RE45), lactamase-producing strain) was 0.0125 µg/mL, the “Minimum Inhibitory Concentration (MIC)” value (P. vulgaris HX-19) was < 0.006 µg/mL and the “Minimum Inhibitory Concentration (MIC)” value (K. pneumoniae PCI-602) was < 0.006 µg/mL. The “Minimum Inhibitory Concentration (MIC)” value (S. aureus 209P NIHJ-JC1) was 25 µg/mL, the “Minimum Inhibitory Concentration (MIC)” value (M. morganii GN5407) was 0.05 µg/mL and the “Minimum Inhibitory Concentration (MIC)” value (P. vulgaris No. 33) was 0.0125 µg/mL. The “Minimum Inhibitory Concentration (MIC)” value (E. coli NIHJ JC2) was 0.39 µg/mL, the “Minimum Inhibitory Concentration (MIC)” value (S. marcescens No. 16-2) was 0.78 µg/mL and the “Minimum Inhibitory Concentration (MIC)” value (E. coli GN5482) was 0.78 µg/mL. The “Minimum Inhibitory Concentration (MIC)” value (S. marcescens IAM 1184) was 0.05 µg/mL, the “Minimum Inhibitory Concentration (MIC)” value (E. cloacae Nek 39) was 0.05 µg/mL and the “Minimum Inhibitory Concentration (MIC)” value (K. pneumoniae No. 42) was 0.05 µg/mL. For the same compound, the “Minimum Inhibitory Concentration (MIC)” value (K. oxytoca GN10650) was 0.025 µg/mL and the MIC (E. cloacae 963; Enterobacter cloacae, 963, 16 h, read-out: Minimum Inhibitory Concentration (MIC), E. cloacae 963) was 0.05 µg/mL (≈ 0.0637 µM).

From patent publication US5061794A, “Cephalosporin derivatives, and antibacterial agents” (priority 1986, dated 1991)
